Molecules are shown by their SMILES.

Turning to `CC(C)C[C@@H](C(=O)N[C@H](C(=O)N(C)C)C(C)(C)C)[C@H](CN(C)S(C)(=O)=O)C(=O)NO` [Example 1], the melting point (as a rule, the temperature, or range, at which the solid turns liquid) is 216 to 218 °C.
The same measure for `COCCOCCNC(=O)[C@@H](NC(=O)[C@H](CC(C)C)[C@H](CN(C)S(C)(=O)=O)C(=O)NO)C(C)(C)C` [Example 2, N^1-Hydroxy-3R-isobutyl-2R-[(methanesulfonyl-methyl-amino)-methyl]-N^4-{1S-[2-(2-methoxy-ethoxy)-ethyl-carbamoyl]-2,2-dimethyl-propyl}-succinamide]: 192 to 193 °C; for `CC(C)C[C@@H](C(=O)N[C@H](CO)Cc1ccccc1)[C@H](CN(C)S(C)(=O)=O)C(=O)NO` [Example 3, N^4-(1S-Benzyl-2-hydroxy-ethyl)-N^1-hydroxy-3R-isobutyl-2R-[(methanesulfonyl-methyl-amino)-methyl]-succinamide]: 200 to 202 °C; for `CC(C)C[C@@H](C(=O)N[C@H](CO)C(C)(C)C)[C@H](CN(C)S(C)(=O)=O)C(=O)NO` [Example 4, N^1-Hydroxy-N^4-(1S-hydroxymethyl-2,2-dimethylpropyl)-3R-isobutyl-2R-[(methanesulfonyl-methyl-amino)-methyl]-succinamide]: 167 to 169 °C.
The same measure for `CC(C)C[C@@H](C(=O)N[C@H](CO)Cc1c[nH]cn1)[C@H](CN(C)S(C)(=O)=O)C(=O)NO` [Example 5, N^1-Hydroxy-N^4-[2-hydroxy-1S-(1H-imidazol-4-ylmethyl)-ethyl]-3R-isobutyl-2S-[(methanesulfonyl-methyl-amino)-methyl]-succinamide]: 219 to 221 °C.
Regarding `CC(C)C[C@@H](C(=O)N[C@H](CO)Cc1ccc(O)cc1)[C@H](CN(C)S(C)(=O)=O)C(=O)NO` [Example 6, N^1-Hydroxy-N^4-[2-hydroxy-1S-(4-hydroxy-benzyl)-ethyl]-3R-isobutyl-2S-[(methanesulfonyl-methyl-amino)-methyl]-succinamide], the melting point was in the range of 125 to 128 °C.
`COc1ccc(S(=O)(=O)N(C)C[C@H](C(=O)NO)[C@@H](CC(C)C)C(=O)N[C@H](C(=O)N(C)C)C(C)(C)C)cc1` [Example 7, N^4-(1S-Dimethylcarbamoyl-2,2-dimethyl-propyl)-N^1-hydroxy-3R-isobutyl-2S-{[(4-methoxy-benzenesulfonyl)-methyl-amino]-methyl}-succinamide]: the melting point was in the range of 217 to 222 °C.
The same measure for `COc1ccc(S(=O)(=O)N(C)C[C@H](C(=O)NO)[C@@H](CC(C)C)C(=O)N[C@H](CO)Cc2ccccc2)cc1` [Example 8, N^4-(1S-Benzyl-2-hydroxy-ethyl)-N^1-hydroxy-3R-isobutyl-2S-{[(4-methoxy-benzenesulfonyl)-methyl-amino]-methyl}-succinamide]: 196 to 203 °C.
The compound `COc1ccc(S(=O)(=O)N(C)C[C@H](C(=O)NO)[C@@H](CC(C)C)C(=O)N[C@H](CO)Cc2c[nH]cn2)cc1` [Example 9] displayed a melting point of 208 to 209 °C.
In the case of `COc1ccc(S(=O)(=O)N(C)C[C@H](C(=O)NO)[C@@H](CC2CCCC2)C(=O)N[C@H](CO)C(C)(C)C)cc1` [Example 10, 3R-Cyclopentylmethyl-N^1-hydroxy-N^4-(1S-hydroxymethyl-2,2-dimethyl-propyl)-2S-{[(4-methoxy-benzenesulfonyl)-methyl-amino]-methyl}-succinamide], the melting point fell in the range of 181 to 184 °C.
The same measure for `CN(C[C@H](C(=O)NO)[C@@H](CCCc1ccc(-c2ccccc2)cc1)C(=O)N[C@H](CO)Cc1ccccc1)S(C)(=O)=O` [Example 12, N^4-(1S-Benzyl-2-hydroxy-ethyl)-3R-(3-biphenyl-4-yl-propyl)-N^1-hydroxy-2S-[(methanesulfonyl-methyl-amino)-methyl]-succinamide]: 201 to 207 °C.
Turning to `COc1ccc(S(=O)(=O)N(C)C[C@H](C(=O)NO)[C@@H](CCCc2ccc(-c3ccccc3)cc2)C(=O)N[C@H](CO)C(C)(C)C)cc1` [Example 13, 3R-(3-Biphenyl4-yl-propyl)-N^1-hydroxy-N^4-(1S-hydroxymethyl-2,2-dimethyl-propyl)-2S-{[(4-methoxy-benzenesulfonyl)-methyl-amino]-methyl}-succinamide], the melting point lay within 226 to 228 °C.
For the compound `COc1ccc(S(=O)(=O)N(C)C[C@H](C(=O)NO)[C@@H](CCCc2ccc(-c3ccccc3)cc2)C(=O)N[C@H](CO)Cc2ccccc2)cc1` [Example 14, N^4-(1S-Benzyl-2-hydroxy-ethyl)-3R-(3-biphenyl-4-yl-propyl)-N^1-hydroxy-2S-{[(4-methoxy-benzenesulfonyl)-methyl-amino]-methyl}-succinamide], the melting point fell in the range of 245 to 247 °C.

The values are drawn from US6358987B1, “Metalloproteinase inhibitors” (British Biotech Pharmaceuticals Limited, priority 1997, dated 2002).
